From US5945433A, “Quinoline derivatives containing a diol as leukotriene antagonists” (Leo Pharmaceutical Products, Ltd. A/S, priority 1995, dated 1999)
“And” between values parts separate entries of the source, which are not always exact repeats. Identical values can stand only once. Like-named read-outs stand apart in the source and are kept apart here.

Legend:
LTD4 receptor = target: T1, LTD4 receptor (Cavia porcellus, UniProt Q2NNR5); test: Receptor binding: direct competition with [^3 H]LTD4 on guinea-pig lung membranes; settings: mean ± SD (n) or individual values
T1 construct: from tissue; host or cells: guinea-pig lung membranes
T1 sequence (Q2NNR5 1-340): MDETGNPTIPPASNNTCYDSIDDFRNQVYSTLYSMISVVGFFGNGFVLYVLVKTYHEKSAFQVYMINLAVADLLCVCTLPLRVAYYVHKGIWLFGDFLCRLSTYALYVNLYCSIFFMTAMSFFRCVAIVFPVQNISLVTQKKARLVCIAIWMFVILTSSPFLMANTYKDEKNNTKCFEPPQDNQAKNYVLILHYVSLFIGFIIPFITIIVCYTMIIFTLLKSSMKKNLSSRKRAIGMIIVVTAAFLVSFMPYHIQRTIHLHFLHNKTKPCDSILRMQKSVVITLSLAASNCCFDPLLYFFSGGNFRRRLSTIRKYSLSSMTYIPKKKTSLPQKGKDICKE
Protocol: It is of importance to investigate the receptor binding properties of leukotriene antagonists in relation to their inhibition of smooth muscle contraction. Receptor binding studies may be performed with guinea-pig lung membranes in a direct competition assay between a leukotrien antagonist and [^3 H]LTD4 for binding to the LTD4 receptor^3,4. A pIC50 value is determined as the negative logarithm of the molar concentration of antagonist inhibiting [^3 H]LTD4 binding by 50%. The pIC50 values for the compounds of the present invention are equal to or higher than those for the reference compound SR3040^5 (see Table I)

[1] = test system: LTD4-induced bronchoconstriction; test: LTD4-induced bronchoconstriction in anaesthetized guinea-pigs; format: in vivo, guinea-pig; settings: Cavia porcellus
Protocol: The leukotriene antagonistic effect was tested in vivo on LTD4 -induced bronchoconstriction in anaesthetized guinea-pigs^3. […] The ED50 values represent the dose inhibiting the leukotriene induced bronchoconstriction by 50%. The ED50 values were calculated by regression analysis of 2-3 doses.

[2] = absence of albumin, read-out: pIC50, binding of [^3 H]LTD4, absence of albumin (converted)
[3] = presence of 0.1% human serum albumin, read-out: pIC50, binding of [^3 H]LTD4, presence of albumin (converted)
[4] = iv, 10 min, i.v., 10 min before bronchoconstriction
[5] = po, 24 h before bronchoconstriction
[6] = po, 48 h before bronchoconstriction
[7] = po, 4 h before bronchoconstriction

| IC50 (LTD4 receptor; [2]) | IC50 (LTD4 receptor; [3]) | SMILES | ED50 [1, 4] [mg/kg] | ED50 [1, 5] [mg/kg] | ED50 [1, 6] [mg/kg] | ED50 [1, 7] [mg/kg] | ED50 ([1]; po, 72 h before bronchoconstriction) [mg/kg] |
| --- | --- | --- | --- | --- | --- | --- | --- |
| 3.98 nM | 2.51 nM | OC[C@H](O)[C@H](Nc1cccc(/C=C/c2ccc3ccc(F)cc3n2)c1)c1ccccc1 [Example 5] | – | – | – | – | – |
| 1 nM | 0.501 nM | OC[C@@H](O)[C@@H](Nc1cccc(/C=C/c2ccc3cc(F)c(F)cc3n2)c1)c1ccccc1 [Example 8] | 0.18 | 14.9 | > 30 | – | – |
| 5.01 nM and 6.31 nM | 3.98 nM and 2.51 nM | OC[C@H](O)[C@H](Nc1cccc(/C=C/c2ccc3ccc(Cl)cc3n2)c1)c1ccccc1 [Example 3] | 0.3 | 20.3 | – | 0.956 | – |
| 1.58 nM | 0.794 nM | OC[C@H](O)[C@H](Nc1cccc(/C=C/c2ccc3cc(F)c(F)cc3n2)c1)c1ccccc1 [Example 7, (+)-2R,3R-E-3-N-[3-2-(6,7-difluoroquinolin-2-yl)ethenyl]-phenylamino-3-phenyl-1,2-propandiol] | 0.058 | 4.64 | 9.73 | 1.64 | > 30 |
| 3.98 nM | 1.26 nM and 2 nM | OC[C@@H](O)[C@@H](Nc1cccc(/C=C/c2ccc3ccc(Cl)cc3n2)c1)c1ccccc1 [Example 4] | 0.35 | 8.66 | > 30 | 3.63 | – |
| 1.58 nM | 1.58 nM | OC[C@@H](O)[C@@H](Nc1cccc(/C=C/c2ccc3ccc(F)cc3n2)c1)c1ccccc1 [Example 6] | – | – | – | – | – |
